# Results taken from US9409898B2, “Substituted pyrazole compounds as CRAC modulators” (LUPIN LIMITED, priority 2012, dated 2016).
# Tested on: IL-2 secretion
# Assay: Inhibition of IL-2 secretion in PHA-stimulated Jurkat T cells (ELISA)
# Type: cell-based
# Settings: Homo sapiens, PHA stimulation, 20 to 24 hours, IL-2 by ELISA
# Method: The CRAC channel modulatory activity of the compounds were thus evaluated by measuring the secretion of IL-2 by antigen stimulated T-cells in vitro. Alternatively, such activity can also be evaluated by assay methods known to one skilled in the art.
# Inhibition of IL-2 secretion: Jurkat T cells were seeded at a density of 0.5 to 1 million cells per well in RPMI medium. Test compounds from this invention were added to the cells at different concentrations. This was followed by the addition of PHA, a T cell mitogen after 10 minutes. The cells were then incubated for 20 to 24 hours in a CO2 incubator at 37° C. After incubation with the compounds, cells were centrifuged, the supernatant was collected and processed for ELISA to quantitate the amount of IL-2 secreted. A commercial ELISA kit (R&D Systems, Inc. Minneapolis, Minn., USA) was used to estimate the IL-2 concentrations. Amount of IL-2 secreted by cells stimulated with PHA was considered as a 100% maximal signal and the decrease in amount of IL-2 secreted by cells treated with the test compounds was expressed as percent inhibition of the maximal signal. The dose response data was analyzed using 4-parametric sigmoidal dose response (variable slope) curve—fit.
row,SMILES,IC50
1,"CN1N=C(c2cc(C(F)(F)F)n(-c3ccc(NCc4c(F)cccc4Cl)cn3)n2)C(C)(C)C1=O [Example 25, 1′-(5-((2-Chloro-6-fluorobenzyl)amino)pyridin-2-yl)-1,4,4-trimethyl-5′-(trifluoromethyl)-1H,1′H-[3,3′-bipyrazol]-5(4H)-one]",100 to 1000 nM
2,"Cn1nc(-c2cc(C3CC3)nn2-c2ccc(NCc3c(F)cccc3F)cn2)oc1=O [Example 3, 5-(3-Cyclopropyl-1-(5-((2,6-difluorobenzyl)amino)pyridin-2-yl)-1H-pyrazol-5-yl)-3-methyl-1,3,4-oxadiazol-2(3H)-one]",100 to 1000 nM
3,"Cc1cc(-c2nn(C)c(=O)o2)nn1-c1ccc(NC(=O)c2c(F)cccc2F)cn1 [Example 31, 2,6-Difluoro-N-(6-(5-methyl-3-(4-methyl-5-oxo-4,5-dihydro-1,3,4-oxadiazol-2-yl)-1H-pyrazol-1-yl)pyridin-3-yl)benzamide]",> 1000 nM
4,"CC1(C)COC(c2cc(C(F)(F)F)n(-c3ccc(NC(=O)c4c(F)cccc4F)cn3)n2)=N1 [Example 21, N-(6-(3-(4,4-Dimethyl-4,5-dihydrooxazol-2-yl)-5-(trifluoromethyl)-1H-pyrazol-1-yl)pyridin-3-yl)-2,6-difluorobenzamide]",100 to 1000 nM
5,"Cn1nc(-c2cc(CF)n(-c3ccc(NCc4c(F)cccc4F)cn3)n2)oc1=O [Example 5, 5-(1-(5-((2,6-Difluorobenzyl)amino)pyridin-2-yl)-5-(fluoromethyl)-1H-pyrazol-3-yl)-3-methyl-1,3,4-oxadiazol-2(3H)-one]",100 to 1000 nM
6,"CC(=O)N1N=C(c2cc(C(F)(F)F)n(-c3ccc(NCc4c(F)cccc4F)cn3)n2)OC1(C)C [Example 27, 1-(5-(1-(5-((2,6-Difluorobenzyl)amino)pyridin-2-yl)-5-(trifluoromethyl)-1H-pyrazol-3-yl)-2,2-dimethyl-1,3,4-oxadiazol-3(2H)-yl)ethanone]",100 to 1000 nM
7,"Cn1nc(-c2cc(C(F)(F)F)n(-c3ccc(C(=O)Nc4c(F)cccc4F)cn3)n2)oc1=O [Example 54, N-(2,6-Difluorophenyl)-6-(3-(4-methyl-5-oxo-4,5-dihydro-1,3,4-oxadiazol-2-yl)-5-(trifluoromethyl)-1H-pyrazol-1-yl)nicotinamide]",100 to 1000 nM
8,"CN1N=C(c2cc(C(F)(F)F)n(-c3ccc(NC(=O)c4c(F)cccc4F)cn3)n2)C(C)(C)C1=O [Example 16, 2,6-Difluoro-N-(6-(1′,4′,4′-trimethyl-5′-oxo-5-(trifluoromethyl)-4′,5′-dihydro-1H,1′H-[3,3′-bipyrazol]-1-yl)pyridin-3-yl)benzamide]",100 to 1000 nM
9,"CC1(CO)CC(c2cc(C(F)(F)F)n(-c3ccc(NCc4c(F)cccc4Cl)cn3)n2)=NO1 (centres unmarked) [Example 34, (3-(1-(5-((2-Chloro-6-fluorobenzyl)amino)pyridin-2-yl)-5-(trifluoromethyl)-1H-pyrazol-3-yl)-5-methyl-4,5-dihydroisoxazol-5-yl)methanol]",100 to 1000 nM
10,"Cn1nc(-c2cc(C(F)(F)F)n(-c3ccc(NCc4c(F)cccc4F)cn3)n2)oc1=O [Example 22, 5-(1-(5-((2,6-Difluorobenzyl)amino)pyridin-2-yl)-5-(trifluoromethyl)-1H-pyrazol-3-yl)-3-methyl-1,3,4-oxadiazol-2(3H)-one]",< 100 nM
11,"Cn1nc(-c2cc(C(F)(F)F)n(-c3ccc(NC(=O)c4ccc(F)cc4F)nc3)n2)oc1=O [Example 45, 2,4-Difluoro-N-(5-(3-(4-methyl-5-oxo-4,5-dihydro-1,3,4-oxadiazol-2-yl)-5-(trifluoromethyl)-1H-pyrazol-1-yl)pyridin-2-yl)benzamide]",< 100 nM
12,"Cc1cccc(F)c1CNc1ccc(-n2nc(-c3nn(C)c(=O)o3)cc2C(F)(F)F)cn1 [Example 53, 5-(1-(6-((2-Fluoro-6-methylbenzyl)amino)pyridin-3-yl)-5-(trifluoromethyl)-1H-pyrazol-3-yl)-3-methyl-1,3,4-oxadiazol-2(3H)-one]",< 100 nM
13,"Cn1nc(-c2cc(C(F)(F)F)n(-c3ccc(NC(=O)c4c(F)cccc4F)cn3)n2)oc1=O [Example 8, 2,6-Difluoro-N-(6-(3-(4-methyl-5-oxo-4,5-dihydro-1,3,4-oxadiazol-2-yl)-5-(trifluoromethyl)-1H-pyrazol-1-yl)pyridin-3-yl)benzamide]",< 100 nM
14,Cn1nc(-c2cc(C(F)(F)F)n(-c3ccc(NCc4c(F)cccc4Cl)nc3)n2)oc1=O [Example 52],< 100 nM
15,"CC(=O)N1N=C(c2cc(C(F)(F)F)n(-c3ccc(NC(=O)c4c(F)cccc4F)cn3)n2)OC1(C)C [Example 20, N-(6-(3-(4-Acetyl-5,5-dimethyl-4,5-dihydro-1,3,4-oxadiazol-2-yl)-5-(trifluoromethyl)-1H-pyrazol-1-yl)pyridin-3-yl)-2,6-difluorobenzamide]",100 to 1000 nM
16,"Cn1nc(-c2cc(C(F)F)n(-c3ccc(NC(=O)c4c(F)cccc4F)cn3)n2)oc1=O [Example 11, N-(6-(5-(Difluoromethyl)-3-(4-methyl-5-oxo-4,5-dihydro-1,3,4-oxadiazol-2-yl)-1H-pyrazol-1-yl)pyridin-3-yl)-2,6-difluorobenzamide]",< 100 nM
17,"CN1N=C(c2cc(C(F)(F)F)n(-c3ccc(NCc4c(F)cccc4F)cn3)n2)C(C)(C)C1=O [Example 24, 1′-(5-((2,6-Difluorobenzyl)amino)pyridin-2-yl)-1,4,4-trimethyl-5′-(trifluoromethyl)-1H,1′H-[3,3′-bipyrazol]-5(4H)-one]",100 to 1000 nM
18,"COC(=O)C1(C)CC(c2cc(C(F)(F)F)n(-c3ccc(NCc4c(F)cccc4F)cn3)n2)=NO1 (centres unmarked) [Example 6, Methyl 3-(1-(5-((2,6-difluorobenzyl)amino)pyridin-2-yl)-5-(trifluoromethyl)-1H-pyrazol-3-yl)-5-methyl-4,5-dihydroisoxazole-5-carboxylate]",100 to 1000 nM
19,"Cn1nc(-c2cc(C(F)(F)F)n(-c3ccc(NCc4c(F)cccc4Cl)cn3)n2)oc1=O [Example 23, 5-(1-(5-((2-Chloro-6-fluorobenzyl)amino)pyridin-2-yl)-5-(trifluoromethyl)-1H-pyrazol-3-yl)-3-methyl-1,3,4-oxadiazol-2(3H)-one]",< 100 nM
20,"CC1(C)COC(c2cc(C(F)(F)F)n(-c3ccc(NCc4c(F)cccc4F)cn3)n2)=N1 [Example 28, N-(2,6-Difluorobenzyl)-6-(3-(4,4-dimethyl-4,5-dihydrooxazol-2-yl)-5-(trifluoromethyl)-1H-pyrazol-1-yl)pyridin-3-amine]",100 to 1000 nM

# Further lines, results first:
row,IC50,SMILES
1,< 100 nM,"Cn1nc(-c2cc(C(F)(F)F)n(-c3ccc(NC(=O)c4ccc(F)c(F)c4F)nc3)n2)oc1=O [Example 44, 2,3,4-Trifluoro-N-(5-(3-(4-methyl-5-oxo-4,5-dihydro-1,3,4-oxadiazol-2-yl)-5-(trifluoromethyl)-1H-pyrazol-1-yl)pyridin-2-yl)benzamide]"
2,< 100 nM,"Cc1cccc(F)c1C(=O)Nc1ccc(-n2nc(-c3nn(C)c(=O)o3)cc2C(F)(F)F)nc1 [Example 10, 2-Fluoro-6-methyl-N-(6-(3-(4-methyl-5-oxo-4,5-dihydro-1,3,4-oxadiazol-2-yl)-5-(trifluoromethyl)-1H-pyrazol-1-yl)pyridin-3-yl)benzamide]"
3,< 100 nM,"Cn1nc(-c2cc(C(F)(F)F)n(-c3ccc(NC(=O)c4ccccc4Cl)nc3)n2)oc1=O [Example 47, 2-Chloro-N-(5-(3-(4-methyl-5-oxo-4,5-dihydro-1,3,4-oxadiazol-2-yl)-5-(trifluoromethyl)-1H-pyrazol-1-yl)pyridin-2-yl)benzamide]"
4,< 100 nM,"CC1(CO)CC(c2cc(C(F)(F)F)n(-c3ccc(NC(=O)c4c(F)cccc4F)cn3)n2)=NO1 (centres unmarked) [Example 36, 2,6-Difluoro-N-(6-(3-(5-(hydroxymethyl)-5-methyl-4,5-dihydroisoxazol-3-yl)-5-(trifluoromethyl)-1H-pyrazol-1-yl)pyridin-3-yl)benzamide]"
5,< 100 nM,"Cc1ccccc1C(=O)Nc1ccc(-n2nc(-c3nn(C)c(=O)o3)cc2C(F)(F)F)cn1 [Example 48, 2-Methyl-N-(5-(3-(4-methyl-5-oxo-4,5-dihydro-1,3,4-oxadiazol-2-yl)-5-(trifluoromethyl)-1H-pyrazol-1-yl)pyridin-2-yl)benzamide]"
6,< 100 nM,"CC1(C)ON=C(c2cc(C(F)(F)F)n(-c3ccc(NC(=O)c4c(F)cccc4Cl)cn3)n2)C1=O [Example 15, 2-Chloro-N-(6-(3-(5,5-dimethyl-4-oxo-4,5-dihydroisoxazol-3-yl)-5-(trifluoromethyl)-1H-pyrazol-1-yl)pyridin-3-yl)-6-fluorobenzamide]"
7,< 100 nM,"Cn1nc(-c2cc(C(F)(F)F)n(-c3ccc(NCc4c(F)cccc4F)nc3)n2)oc1=O [Example 51, 5-(1-(6-((2,6-Difluorobenzyl)amino)pyridin-3-yl)-5-(trifluoromethyl)-1H-pyrazol-3-yl)-3-methyl-1,3,4-oxadiazol-2(3H)-one]"
8,< 100 nM,"Cc1cccc(F)c1C(=O)Nc1ccc(-n2nc(-c3nn(C)c(=O)o3)cc2C(F)(F)F)cn1 [Example 40, 2-Fluoro-6-methyl-N-(5-(3-(4-methyl-5-oxo-4,5-dihydro-1,3,4-oxadiazol-2-yl)-5-(trifluoromethyl)-1H-pyrazol-1-yl)pyridin-2-yl)benzamide]"
9,< 100 nM,"Cn1nc(-c2cc(C(F)(F)F)n(-c3ccc(NC(=O)c4ccccc4F)nc3)n2)oc1=O [Example 41, 2-Fluoro-N-(5-(3-(4-methyl-5-oxo-4,5-dihydro-1,3,4-oxadiazol-2-yl)-5-(trifluoromethyl)-1H-pyrazol-1-yl)pyridin-2-yl)benzamide]"
